{
  "source": "ChEMBL document CHEMBL1128613",
  "about": "“A water soluble benzazepine cholecystokinin-B receptor antagonist” (Bioorg Med Chem Lett, 1995)",
  "molecular_target": "T1, Cholecystokinin receptor type A (Cavia porcellus, UniProt Q63931)",
  "T1 sequence (Q63931 whole entry)": "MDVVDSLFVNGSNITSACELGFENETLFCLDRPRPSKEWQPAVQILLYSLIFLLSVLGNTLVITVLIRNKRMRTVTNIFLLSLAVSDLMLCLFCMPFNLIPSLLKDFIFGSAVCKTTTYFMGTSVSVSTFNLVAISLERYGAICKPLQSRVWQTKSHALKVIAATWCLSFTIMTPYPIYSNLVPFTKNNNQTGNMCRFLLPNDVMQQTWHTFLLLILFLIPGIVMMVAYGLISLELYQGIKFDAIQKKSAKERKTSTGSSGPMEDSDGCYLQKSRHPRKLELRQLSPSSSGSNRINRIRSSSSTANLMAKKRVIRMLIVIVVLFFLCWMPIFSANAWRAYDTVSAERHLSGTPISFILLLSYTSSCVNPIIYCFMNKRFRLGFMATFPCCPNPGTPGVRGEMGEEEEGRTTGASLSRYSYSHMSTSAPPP",
  "experiment": "Binding activity towards cholecystokinin-A (CCK-A) receptor in guinea pig pancreas",
  "data": [
    {"smiles": "Cc1ccc2c(c1)N(CC(=O)NC(C)(C)C)C(=O)[C@H](NC(=O)Nc1cccc(-c3nnn[nH]3)c1)C[C@@H]2C(C)C", "values": [
      {"measurement": "IC50", "value": 250, "unit": "nM"}
    ]},
    {"smiles": "Cc1ccc([C@H]2C[C@@H](NC(=O)Nc3cccc(-c4nn[nH]n4)c3)C(=O)N(CC(=O)NC(C)(C)C)c3cc(C)ccc32)cc1", "values": [
      {"measurement": "IC50", "value": 600, "unit": "nM"}
    ]},
    {"smiles": "CCS(=O)(=O)NC(=O)c1cccc(NC(=O)N[C@@H]2C[C@H](c3ccccc3)c3ccc(C)cc3N(CC(=O)NC(C)(C)C)C2=O)c1", "values": [
      {"measurement": "IC50", "value": 1100, "unit": "nM"}
    ]},
    {"smiles": "Cc1ccc2c(c1)N(CC(=O)NC(C)(C)C)C(=O)[C@H](NC(=O)Nc1cccc(-c3nnn[nH]3)c1)C[C@@H]2C1CCCCC1", "values": [
      {"measurement": "IC50", "value": 490, "unit": "nM"}
    ]},
    {"smiles": "Cc1ccc2c(c1)N(CC(=O)NC(C)(C)C)C(=O)[C@H](NC(=O)Nc1cccc(C(=O)NS(C)(=O)=O)c1)C[C@@H]2C1CCCCC1", "values": [
      {"measurement": "IC50", "value": 520, "unit": "nM"}
    ]},
    {"smiles": "COC(=O)c1cccc(NC(=O)N[C@@H]2C[C@H](c3ccccc3)c3ccc(C)cc3N(CC(=O)NC(C)(C)C)C2=O)c1", "values": [
      {"measurement": "IC50", "value": 310, "unit": "nM"}
    ]},
    {"smiles": "Cc1ccc2c(c1)N(CC(=O)NC(C)(C)C)C(=O)[C@H](NC(=O)Nc1cccc(-c3nnn[nH]3)c1)C[C@@H]2Cc1ccccc1", "values": [
      {"measurement": "IC50", "value": 34, "unit": "nM"}
    ]},
    {"smiles": "Cc1ccc2c(c1)N(CC(=O)NC(C)(C)C)C(=O)[C@H](NC(=O)Nc1cccc(C(=O)O)c1)C[C@@H]2c1ccccc1", "values": [
      {"measurement": "IC50", "value": 4200, "unit": "nM"}
    ]},
    {"smiles": "Cc1ccc2c(c1)N(CC(=O)NC(C)(C)C)C(=O)[C@H](NC(=O)Nc1cccc(-c3nnn[nH]3)c1)C[C@@H]2c1ccccc1", "values": [
      {"measurement": "IC50", "value": 620, "unit": "nM"}
    ]},
    {"smiles": "Cc1ccc2c(c1)N(CC(=O)NC(C)(C)C)C(=O)[C@H](NC(=O)Nc1cccc(C(=O)NS(=O)(=O)Cc3ccccc3)c1)C[C@@H]2c1ccccc1", "values": [
      {"measurement": "IC50", "value": 730, "unit": "nM"}
    ]},
    {"smiles": "Cc1ccc2c(c1)N(CC(=O)NC(C)(C)C)C(=O)[C@H](NC(=O)Nc1cccc(C(=O)NS(=O)(=O)C(F)(F)F)c1)C[C@@H]2c1ccccc1", "values": [
      {"measurement": "IC50", "value": 320, "unit": "nM"}
    ]},
    {"smiles": "Cc1ccc2c(c1)N(CC(=O)NC(C)(C)C)C(=O)[C@H](NC(=O)Nc1cccc(C(=O)NS(C)(=O)=O)c1)C[C@@H]2c1ccccc1", "values": [
      {"measurement": "IC50", "value": 970, "unit": "nM"}
    ]},
    {"smiles": "COC(=O)c1cccc(NC(=O)N[C@@H]2C[C@H](C3CCCCC3)c3ccc(C)cc3N(CC(=O)NC(C)(C)C)C2=O)c1", "values": [
      {"measurement": "IC50", "value": 370, "unit": "nM"}
    ]},
    {"smiles": "Cc1ccc2c(c1)N(CC(=O)NC(C)(C)C)C(=O)[C@H](NC(=O)Nc1cccc(C(=O)NS(=O)(=O)c3ccccc3C)c1)C[C@@H]2c1ccccc1", "values": [
      {"measurement": "IC50", "value": 1300, "unit": "nM"}
    ]},
    {"smiles": "Cc1ccc2c(c1)N(CC(=O)NC(C)(C)C)C(=O)[C@H](NC(=O)Nc1cccc(C(=O)Nc3nnn[nH]3)c1)C[C@@H]2c1ccccc1", "values": [
      {"measurement": "IC50", "value": 1000, "unit": "nM"}
    ]},
    {"smiles": "Cc1ccc2c(c1)N(CC(=O)NC(C)(C)C)C(=O)[C@H](NC(=O)Nc1cccc(-c3nnn[nH]3)c1)C[C@@H]2CC1CCCCC1", "values": [
      {"measurement": "IC50", "value": 220, "unit": "nM"}
    ]},
    {"smiles": "Cc1ccc2c(c1)N(CC(=O)NC(C)(C)C)C(=O)[C@H](NC(=O)Nc1cccc(C(=O)NS(=O)(=O)c3ccccc3)c1)C[C@@H]2c1ccccc1", "values": [
      {"measurement": "IC50", "value": 1300, "unit": "nM"}
    ]},
    {"smiles": "Cc1ccc2c(c1)N(CC(=O)NC(C)(C)C)C(=O)[C@H](NC(=O)Nc1cccc(C(=O)O)c1)C[C@@H]2C1CCCCC1", "note": "(stereo in doubt; 2)", "values": [
      {"measurement": "IC50", "value": 1400, "unit": "nM"}
    ]},
    {"smiles": "Cc1ccc2c(c1)N(CC(=O)NC(C)(C)C)C(=O)[C@H](NC(=O)Nc1cccc(C(=O)O)c1)C[C@@H]2C1CCCCC1", "note": "(stereo in doubt; 5k)", "values": [
      {"measurement": "IC50", "value": 2300, "unit": "nM"}
    ]}
  ]
}
